Experimental data as given in patent publication US11130762B2, “Azaaryl derivative, preparation method therefor, and application thereof for use in pharmacy” (Abbisko Therapeutics Co., Ltd., priority 2017, dated 2021).
Where two headings read alike, the source gives them in different places.

Experiments:
CSF-1R = CSF-1R (Homo sapiens, UniProt P07333); assay: CSF-1R in vitro biochemical kinase study (ADP-Glo assay); conditions: 500 μM ATP, * = average of multiple tests, read-out: Enzymatic experiment CSF1R IC50
Sequence of CSF-1R (P07333 20-972): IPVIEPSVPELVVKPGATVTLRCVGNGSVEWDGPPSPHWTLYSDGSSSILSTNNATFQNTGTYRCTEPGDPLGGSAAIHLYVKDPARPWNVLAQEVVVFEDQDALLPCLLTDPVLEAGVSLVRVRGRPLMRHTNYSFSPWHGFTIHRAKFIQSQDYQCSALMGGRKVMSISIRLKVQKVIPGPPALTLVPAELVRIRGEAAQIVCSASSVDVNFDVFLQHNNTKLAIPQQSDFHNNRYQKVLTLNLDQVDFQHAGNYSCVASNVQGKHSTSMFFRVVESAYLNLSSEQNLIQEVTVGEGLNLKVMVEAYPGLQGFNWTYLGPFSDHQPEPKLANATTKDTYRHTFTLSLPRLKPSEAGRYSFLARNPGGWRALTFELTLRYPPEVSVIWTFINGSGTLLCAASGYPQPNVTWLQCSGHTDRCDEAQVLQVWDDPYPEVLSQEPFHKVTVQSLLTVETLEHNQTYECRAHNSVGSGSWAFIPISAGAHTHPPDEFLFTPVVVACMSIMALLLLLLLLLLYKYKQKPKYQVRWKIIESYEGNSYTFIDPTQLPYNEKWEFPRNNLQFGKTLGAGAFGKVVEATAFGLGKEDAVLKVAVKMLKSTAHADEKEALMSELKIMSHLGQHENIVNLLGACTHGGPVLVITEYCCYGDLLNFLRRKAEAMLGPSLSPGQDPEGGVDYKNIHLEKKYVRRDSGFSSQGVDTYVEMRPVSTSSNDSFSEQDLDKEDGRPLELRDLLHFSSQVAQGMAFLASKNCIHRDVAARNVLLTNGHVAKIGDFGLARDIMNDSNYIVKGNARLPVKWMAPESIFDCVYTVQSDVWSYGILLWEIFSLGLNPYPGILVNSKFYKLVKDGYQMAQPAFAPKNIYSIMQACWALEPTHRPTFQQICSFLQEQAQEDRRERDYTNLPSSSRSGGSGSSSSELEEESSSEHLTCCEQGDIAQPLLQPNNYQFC
Procedure: A. CSF-1R In Vitro Biochemical Kinase Study
In the present invention, the inhibitory activity of compounds against the CSF-1R activity was determined by using CSF-1R ADP-Glo assay. The compound-mediated inhibition effect was achieved by inhibiting the production of ADP from consumption of ATP, and the activities of compounds were evaluated by using the ADP-Glo kit (Promega, cat. No. V9101). The specific experimental process was as follows:
1. The kinase reaction performed in the present invention was carried out in a 384-well plate (Perkinelmer, cat. No. 6007290), 3.95 nM of CSF-1R, 500 μM of ATP, and 0.2 mg/mL of polypeptide (Poly (Glu4, Try1), Sigma, cat. No. P0275) were respectively weighed and added to each well:
2. following reagents were then added to each well to reach the final reaction system: 40 mM Tris, pH 7.5, 20 mM MgCl2, 0.01% Triton X-100, 0.1 mg/mL BSA, 2.5 mM DTT, and 0.1% DMSO;
3. the reaction was conducted at 30° C. for 60 min;
4. then an equal volume of stop solution (ADP-Glo) was added to the kinase reaction system;
5. the mixed solution was incubated at 25° C. for 60 min, and the kinase reaction was then terminated;
6. a two-fold volume of detection reagent was then added to each well;
7. the mixed solution was incubated at 25° C. for 30 min;
8. the compound IC50 value was measured by using a plate reader (Tecan, M1000) and a four-parameter curve was generated in Graphpad Prism.

KIT kinase = KIT kinase (Homo sapiens, UniProt P10721); assay: KIT in vitro biochemical kinase study (Caliper EZ Reader); conditions: Caliper mobility shift; read-out: Enzymatic experiment KIT IC50
Sequence of KIT kinase (P10721 26-976): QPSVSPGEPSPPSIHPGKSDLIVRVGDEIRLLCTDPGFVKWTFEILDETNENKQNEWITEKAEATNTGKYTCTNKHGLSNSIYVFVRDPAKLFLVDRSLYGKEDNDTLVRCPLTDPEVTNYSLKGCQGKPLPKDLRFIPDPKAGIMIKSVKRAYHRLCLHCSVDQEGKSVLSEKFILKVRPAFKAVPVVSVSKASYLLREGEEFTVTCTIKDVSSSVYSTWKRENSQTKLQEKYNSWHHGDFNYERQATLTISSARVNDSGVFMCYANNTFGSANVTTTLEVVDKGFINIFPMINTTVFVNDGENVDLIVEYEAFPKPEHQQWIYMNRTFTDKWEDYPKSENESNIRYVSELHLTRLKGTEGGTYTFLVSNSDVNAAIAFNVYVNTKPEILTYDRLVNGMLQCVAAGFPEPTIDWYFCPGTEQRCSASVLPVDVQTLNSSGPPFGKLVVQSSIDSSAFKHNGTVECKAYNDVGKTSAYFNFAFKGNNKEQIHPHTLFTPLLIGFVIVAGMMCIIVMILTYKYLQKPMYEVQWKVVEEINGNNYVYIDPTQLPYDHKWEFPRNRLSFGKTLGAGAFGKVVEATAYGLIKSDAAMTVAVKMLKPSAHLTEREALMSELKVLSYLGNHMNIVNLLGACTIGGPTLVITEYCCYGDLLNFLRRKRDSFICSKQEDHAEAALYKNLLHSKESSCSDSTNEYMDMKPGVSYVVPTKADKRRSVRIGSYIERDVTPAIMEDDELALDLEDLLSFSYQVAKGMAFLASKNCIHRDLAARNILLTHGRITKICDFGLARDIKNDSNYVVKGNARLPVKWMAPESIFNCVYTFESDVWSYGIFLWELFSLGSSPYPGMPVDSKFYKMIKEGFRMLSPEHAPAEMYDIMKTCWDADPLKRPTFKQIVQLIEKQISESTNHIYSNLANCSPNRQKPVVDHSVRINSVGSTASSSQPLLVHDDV
Procedure: B. KIT/PDGFRA In Vitro Biochemical Kinase Study
1. Preparation of 1-Fold Kinase Buffer and Stop Solution
1.2 stop solution: 100 mM HEPES, pH 7.5, 0.015% Brij-35, 0.2% Coating Reagent #3, 50 mM EDTA
2. Preparation of Compound Solution
2.1 Dilution of Compound Solution
1) The final concentration of the compound solution was 40 μM, and the concentration of the prepared stock solution was 50 times of the final concentration, i.e., 2 mM.
2) 80 μL of 100% DMSO was added to the second well of the 96-well plate, then 20 μL of 10 mM compound solution was added, and thereby 2 mM compound solution was prepared, 60 μL of 100% DMSO was added to other wells, 20 μL of compound was taken from the second well, added to the third well and diluted by 4 times. This serial 4-time dilution was conducted in sequence for the total of 10 concentrations.
2.2 5-Fold Compound Solution Transferred to a Reaction Plate
1) 10 μL of solution was taken from each well of the above 96-well plate and added to another 96-well plate, and 90 μL of kinase buffer was added.
2) 5 μL of solution was taken from the above 96-well plate and added to a 384-well reaction plate.
1) KIT/PDGFRA kinase was added to the 1-fold kinase buffer solution to obtain a 2.5-fold kinase solution.
2) FAM-labeled polypeptide and ATP were added to the 1-fold kinase buffer solution to obtain a 2.5-fold substrate solution.
3) 10 μL of 2.5-fold kinase solution was added to the 384-well reaction plate, which already contained 5 μL of 5-fold compound in 10% DMSO. And the mixed solution was incubated at room temperature for 10 min.
4) 10 μL of 2.5-fold substrate solution was added to the 384-well reaction plate.
5) Kinase reaction and termination: the mixed solution was incubated at 28° C. for a certain period of time, and 25 μL of stop solution was added to stop the reaction.
2.4 Data Reading of Caliper EZ Reader II
2.5 Calculation of Percent Inhibition and IC50
1) Percent conversion data were copied from the Caliper EZ Reader. […]

[1] = system: M-NFS-60 mouse myeloid leukemia lymphocytes; assay: CSF-1R-related cell proliferation experiment (Cell Titer Glo), M-NFS-60 cells with M-CSF; type: cell-based; conditions: Lymphocyte, 72 h, 3 days, CTG, * = average of multiple tests
Procedure: C. CSF-1R-Related Cell Proliferation Experiment
Functional effects of compounds on cell proliferation were evaluated by using Cell Titer Glo (CTG) study in the present invention. M-NFS-60 mouse myeloid leukemia lymphocytes (cat. No. CCBJ078) from National Institutes For Food and Drug Control were cultured in the incubator under conditions of RPMI 1640 (Gibco, cat. No. 11875-119), 10% fetal bovine serum (Gibco, 10099-141), human 10 ng/mL M-CSF macrophage colony-stimulating factor (R&D, cat. No. MVN0915101), 37° C., and 5% CO2. Since ATP is an index for viable cell metabolism, CTG (Promega, #G7573) reagent is a homogeneous detection method for detecting the number of viable cells in the culture by quantifying ATP. Therefore, compound-mediated inhibition for cell proliferation/survival was evaluated by quantifying ATP content in cells, and the specific experimental process was as follows:
1. The cells were plated into a tissue-culture-medium-treated 96-well plate (Costar #3904) with 5,000 cells/well/80 μL fresh culture medium;
2. 24 hours later, 10 μL culture medium containing testing compound with 10-fold of final concentration was added to each well;
3. 10 μL of culture medium containing M-CSF with 10-fold of the final concentration was then added to each well;
4. dosage effect was evaluated by testing the 3-fold serial dilutions of the compound;
5. after the cells were incubated for 3 days at 37° C. and 5% CO2, the inhibition on cell survival was quantified after 50 μL of CTG was added and the luminescence assay was performed;
6. the compound concentration leading to half maximal inhibitory (IC50) and the compound concentration leading to absolute half maximal inhibitory (Absolute IC50) were measured by a plate reader (M1000, Tecan) and a four-parameter curve fit in Graphpad Prism 7.

[2] = read-out: Cytological experiment CSF1R IC50
[3] = absolute half maximal inhibition, read-out: Cytological experiment CSF-1R Absolute IC50

SMILES | IC50 (CSF-1R) | IC50 (KIT kinase) | IC50 [1, 2] | IC50 [1, 3]
Cc1nc(-c2cnc3n(c2=O)CCCN3C)ccc1Oc1ccnc(-c2cnn(C)c2)c1 [Example 1, 9-methyl-3-(6-methyl-5-((2-(1-methyl-1H-pyrazol-4-yl)pyridin-4-yl)oxy)pyridin-2-yl)-6,7,8,9-tetrahydro-4H-pyrimido[1,2-a]pyrimidin-4-one] | 73.7 nM | 365 nM | 101 nM | 95.6 nM
CCN1CCCn2c1ncc(-c1ccc(Oc3ccnc(-c4cnn(C)c4)c3)c(C)n1)c2=O [Example 4] | 90.7 nM | 20.5 nM | 38 nM | 20.2 nM
